The values below come from ChEMBL document CHEMBL1201862, “PubChem BioAssay data set” (2004).

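Growth conditions: 96-well plates. Treatment: test compound, 48 hours, 5 concentrations. Analysis: linear interpolation between bracketing concentrations; unreached endpoints set to highest concentration. GI50 = concentration required for 50% inhibition of growth.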 Calls of active or inactive are those of the source. No stated cut-off is given here; in the data, active = GI50 up to about 1.1 µM and inactive = higher. Residues, ends and D or L forms follow the SMILES beside them. Groups on a side chain read outwards from the residue. *: point of attachment. Cbz = O=C(OCc1ccccc1)*; Boc = CC(C)(C)OC(=O)* Bounds are passed on as bounds.

Test in all cases: inhibition of tumour cell growth, NCI panel, 48 h
The subject of experiment [1] is Malme-3M.
The subject of experiment [2] is OVCAR-5.
Experiment [3] has as its system KM12.
Experiment [4] has as its system COLO 205.
In experiment [5] the test system is RXF 393.
Experiment [6] concerns OVCAR-3.
For experiment [7], the system named is K562.
Experiment [8] deals with BT-549.
For experiment [9], the system named is CAKI-1.
Experiment [10] relates to NCI-H226.
Experiment [11] deals with NCI-H460.
Experiment [12] deals with HT-29.
The subject of experiment [13] is SK-MEL-5.
The subject of experiment [14] is SNB-19.
For experiment [15], the system named is ACHN.
Experiment [16] concerns SR.

Consider `CC1=NNC(=O)C1C1C=C(c2c[nH]c3ccccc23)OC1=O` (stereo not given), for which the GI50 in experiment [1] is > 100 µM (inactive); in experiment [2] it was > 100 µM (inactive); in [3], 21.7 µM (inactive); in experiment [4] it was > 100 µM (inactive); in experiment [5], > 100 µM (inactive); in experiment [6], > 100 µM (inactive). Also, the GI50 in experiment [7] was 62.4 µM (inactive); in [8], > 100 µM (inactive); in experiment [9], > 100 µM (inactive); in experiment [10], > 100 µM (inactive); in experiment [11] it was > 100 µM (inactive); in experiment [12], > 100 µM (inactive). Further, the GI50 in [13], in experiment [14] and in [15] was > 100 µM (inactive) in each case.

Take `O=C1c2ccccc2-c2nc(-c3cccs3)cc3c2c1nc1ccccc13`: the GI50 in experiment [1] is 3.56 µM (inactive); in [2] it was 36.7 µM (inactive); in experiment [3], 11.4 µM (inactive); in experiment [4] it was 13.2 µM (inactive); in experiment [16] it was 6.21 µM (inactive); in [6], 2.3 µM (inactive). Further, the GI50 was 13.5 µM (inactive) in experiment [7]; 22 µM (inactive) in experiment [8]; 88.7 µM (inactive) in experiment [9]; 47.8 µM (inactive) in experiment [10]; 4.69 µM (inactive) in [11]; 21.5 µM (inactive) in [12]. Further, the values for the GI50 in experiment [14] and in [15] were 35.9 µM (inactive) and 34.4 µM (inactive), respectively.

Take `CC(C)NCCC(O)c1cc2ccccc2o1` (stereo not given): the GI50 in experiment [1], in experiment [2], in experiment [3], in experiment [4], in [5] and in experiment [6] was > 100 µM (inactive) each time. For the same molecule, the GI50 is 1.06 µM (active) in experiment [7]; > 100 µM (inactive) in experiment [8]; > 100 µM (inactive) in [9]; > 100 µM (inactive) in [10]; > 100 µM (inactive) in experiment [11]; > 100 µM (inactive) in [12]. Besides, the GI50 in experiment [13], in experiment [14] and in experiment [15] was > 100 µM (inactive) in each case.

Take `COc1nc(O)nc2c1C(c1ccc([N+](=O)[O-])cc1)c1c(OC)nc(O)nc1O2`: the GI50 in [2], in experiment [3], in [4], in [5], in experiment [6] and in [8] was > 100 µM (inactive) each time. In addition, the GI50 in experiment [9], in [10], in experiment [11], in [12], in experiment [13] and in experiment [14] was > 100 µM (inactive) each time. Also, the GI50 in experiment [15] is > 100 µM (inactive).

`CC(C)(C)OC(=O)NC(CCCCNC(=O)CNC(=O)OCc1ccccc1)C(=O)NC(CCCCNC(=O)CNC(=O)OCc1ccccc1)C(=O)NC(CCCCNC(=O)CNC(=O)OCc1ccccc1)C(=O)NC(CCCCNC(=O)CNC(=O)OCc1ccccc1)C(=O)O` (stereo not given) (Boc-K([Gly-Cbz])K([Gly-Cbz])K([Gly-Cbz])K([Gly-Cbz])-OH; configuration not given here): the GI50 in experiment [1], in experiment [2], in experiment [16], in [6], in [7] and in experiment [8] was > 100 µM (inactive) in each case. Further, the GI50 in [9], in experiment [10], in experiment [11], in experiment [12], in [13] and in [14] was > 100 µM (inactive) in each case. In addition, the GI50 in [15] is > 100 µM (inactive).

Take `COc1cccc(OCC(=N/NC(=O)c2ccncc2)/N=C/c2cccnc2)c1`: the GI50 in experiment [1], in [2], in experiment [3], in experiment [4], in experiment [5] and in experiment [6] was > 100 µM (inactive) throughout. The GI50 in [7], in experiment [8], in [9], in experiment [10], in experiment [11] and in experiment [12] was > 100 µM (inactive) throughout. In addition, the GI50 in experiment [14] and in [15] was > 100 µM (inactive) throughout.

As to `C[C@]12CC[C@@H]3c4ccc(O)cc4CC[C@H]3[C@@H]1CC[C@@H]2OC(=O)CCc1ccccc1`, the GI50 in experiment [1] was 17.6 µM (inactive); in [2] it was 44.4 µM (inactive); in [3] it was 27.7 µM (inactive); in experiment [4], 19.6 µM (inactive); in experiment [5], 16.4 µM (inactive); in experiment [6], 20.5 µM (inactive). The GI50 is 11 µM (inactive) in [7]; 18.5 µM (inactive) in experiment [8]; 18.4 µM (inactive) in experiment [9]; 19.1 µM (inactive) in experiment [10]; 19.1 µM (inactive) in experiment [11]; 19.6 µM (inactive) in experiment [12]. For the same molecule, the GI50 was 17.1 µM (inactive) in experiment [13], 18.5 µM (inactive) in experiment [14] and 18.7 µM (inactive) in [15].

Take `OC(c1cc2ccc(C(F)(F)F)cc2c2cc(C(F)(F)F)ccc12)C1CCCCN1` (stereo not given): the GI50 in experiment [1] is 0.0498 µM (active); in experiment [2], 1.77 µM (inactive); in [3], 2.07 µM (inactive); in [4], 1.59 µM (inactive); in [16], 2.38 µM (inactive); in experiment [6], 1.63 µM (inactive). Moreover, the GI50 in experiment [7] was 1.55 µM (inactive); in [8], 1.92 µM (inactive); in experiment [9] it was 1.8 µM (inactive); in [11], 1.95 µM (inactive); in [12] it was 2.07 µM (inactive); in experiment [13], 1.56 µM (inactive). In addition, the GI50 is 1.84 µM (inactive) in experiment [14] and 1.33 µM (inactive) in experiment [15].

`S=C(/N=c1\sc(NCc2ccccc2)nc2sc3c(c12)CCN(N1CCc2c(sc4nc(NCc5ccccc5)s/c(=N\C(=S)NCc5ccccc5)c24)C1)C3)NCc1ccccc1`: the GI50 in experiment [1] is 70.3 µM (inactive); in experiment [2], 45 µM (inactive); in experiment [3], 38 µM (inactive); in experiment [4] it was 32.1 µM (inactive); in experiment [5], 36.1 µM (inactive); in [6] it was 20.1 µM (inactive). For the same molecule, the GI50 in experiment [7] was 17.4 µM (inactive); in experiment [8], 62.2 µM (inactive); in [9], 21.9 µM (inactive); in experiment [10] it was 49.9 µM (inactive); in [11], 54.8 µM (inactive); in [12] it was 22.6 µM (inactive). In addition, the GI50 is 87.5 µM (inactive) in [13], 28.2 µM (inactive) in experiment [14] and 29.1 µM (inactive) in experiment [15].

As to `CCOC(=O)C(C(=O)c1ccccc1C(=O)OC)=P(c1ccccc1)(c1ccccc1)c1ccccc1`, the GI50 in experiment [1], in experiment [2], in experiment [3], in experiment [4], in [5] and in experiment [6] was > 10 µM (inactive) each time. In addition, the GI50 in experiment [7], in experiment [8], in experiment [9], in experiment [10], in experiment [11] and in [12] was > 10 µM (inactive) each time. In addition, the GI50 in experiment [13], in [14] and in experiment [15] was > 10 µM (inactive) throughout.

As for `CC1CCC(C(C)C)C(OC(=O)NCn2cc(-c3ccccc3)nn2)C1` (stereo not given), the GI50 in experiment [1], in [2], in experiment [3], in experiment [4], in experiment [16] and in experiment [7] was > 100 µM (inactive) in each case. The GI50 is > 100 µM (inactive) in experiment [8]; > 100 µM (inactive) in experiment [9]; 75.2 µM (inactive) in experiment [10]; > 100 µM (inactive) in experiment [11]; > 100 µM (inactive) in experiment [12]; > 100 µM (inactive) in experiment [13]. For the same molecule, the GI50 in experiment [14] is 33.9 µM (inactive); in experiment [15] it was > 100 µM (inactive).

Regarding `COc1c(N2CCCCC2)c2c(=O)c3ccccc3oc2c2c3ccccc3n(C)c12`, the GI50 in experiment [1] is > 100 µM (inactive); in experiment [2], > 100 µM (inactive); in experiment [3] it was > 100 µM (inactive); in experiment [4], 26.2 µM (inactive); in experiment [5] it was 94.6 µM (inactive); in experiment [6], > 100 µM (inactive). The GI50 in experiment [7] was 58.2 µM (inactive); in experiment [8] it was 98.6 µM (inactive); in experiment [9] it was > 100 µM (inactive); in [10], > 100 µM (inactive); in experiment [11] it was > 100 µM (inactive); in experiment [12] it was 42.4 µM (inactive). Moreover, the GI50 in experiment [13], in [14] and in [15] was > 100 µM (inactive) throughout.

Take `COc1ncnc2c1cnn2Cc1cn(COCC(O)CO)nn1` (stereo not given): the GI50 in experiment [2], in experiment [3], in experiment [4], in experiment [16], in experiment [6] and in experiment [7] was > 100 µM (inactive) each time. For the same molecule, the GI50 in [8], in [9], in experiment [10], in experiment [12], in [13] and in experiment [14] was > 100 µM (inactive) each time. In [15], the GI50 is > 100 µM (inactive).
